# Data: patent US20050215614A1, “Substituted indoles and their use as hcv inhibitors” (Rigel Pharmaceuticals, Inc., priority 2003, published 2005)
# Tests used:
# Type in all cases: cell-based
# [1] = test system: HCV replicon; assay: HCV Replicon Assay (luciferase, 5-2 Luc replicon cells); settings: 5-2 Luc replicon cells (Huh7), 24-48 hours with compound, luciferase counts
# How it was run: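 Huh7-derived 5-2 Luc replicon cells were seeded at 5000-7500 cells/well, grown 24 h at 37° C. and 5% CO2, then exposed to serial compound concentrations for 24-48 hours.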
# [2] = test system: HCV replicon; assay: Immunoblotting Assay (9-13 replicon cells); settings: 9-13 replicon cells (Huh7), 48 hours with compound
# Procedure: Actively dividing 9-13 replicon cells (Huh7 cells comprising an HCV replicon) were seeded at the density of 1×10^5 cells/well in the volume of 2 ml/well into 6 well plate(s). The cells were then incubated at 37° C. and 5% CO2 for 24 hours.
# Various concentrations of compounds (in the volume of 10 μl) were added into each well 24 hours after seeding the cells. The cells were incubated with the compounds for another 48 hours.
# Protein samples were prepared from the cultured cells and resolved on a SDS-PAGE gel.
# After electrophoresis, the protein samples on the SDS-PAGE gel were transferred to a nitrocellulose membrane.
# The membrane was blocked with 5% non-fat milk in PBS for 1 hr at room temperature.
# Primary antibody incubation was performed for 1 hour at room temperature before the membrane was washed for 3 times with PBST (PBS plus 0.1% Tween 20), 15 minutes each.
# Horse Radish Peroxidase conjugated secondary antibody incubation was performed for 1 hour at room temperature before the membrane was washed for 3 times with PBST (PBS plus 0.1% Tween 20), 15 minutes each.
# The membrane was then soaked in substrate solution (Pierce) and exposed to a film.
# [3] = test system: HCV replicon; assay: TaqMan RT-PCR Assay (9-13 replicon cells); settings: 24-48 hours with compound
# Procedure: Actively dividing 9-13 replicon cells were seeded at the density of 3×10^4 cells/well in the volume of 1 ml/well into 24 well plate(s). The cells were then incubated at 37° C. and 5% CO2 for 24
# Various concentrations of compounds (in the volume of 10 μl) were added into each well 24 hours after seeding the cells. The cells were incubated with the compounds for another 24-48 hours.
# After incubating the 9-13 replicon cells with the compounds for 24-48 hours, media were aspirated off and RNA samples were prepared from each well.
# TaqMan® (Roche Molecular Systems) one step RT-PCR was performed using the RNA samples according to the manufacturer's manual. Briefly, properly diluted RNA sample, upstream primer, downstream primer, FAM-labeled probe oligo were mixed and water was added to make up the volume to 25 μl. Equal volume of 2× TaqMan Master Mix were added and the reaction was performed in an ABI Prism 7700 Sequence Detector (Applied Biosystems).
Structure (SMILES),Activity (concentration of inhibitory activity) [1],Activity (concentration of inhibitory activity) [2],Activity (concentration of inhibitory activity) [3]
CC(C)(C)c1cc2cc(NC(=O)c3cccs3)ccc2[nH]1 [Compound 281],a (“a” indicates inhibitory activity at a concentration of less than 10 micromolar),a (“a” indicates inhibitory activity at a concentration of less than 10 micromolar),–
"Cc1cc2cc(NC(=O)C3CCCC3)ccc2n1C(=O)c1c(Cl)cccc1Cl [Compound 16a-1, 5-Cyclopentanecarbonylamino-1-(2′,6′-dichlorobenzoyl)-2-methylindole]",a (“a” indicates inhibitory activity at a concentration of less than 10 micromolar),–,a (“a” indicates inhibitory activity at a concentration of less than 10 micromolar)
"CC(C)(C)c1cc2cc(NC(=O)Cc3cccc4ccccc34)ccc2[nH]1 [Compound 5a, 2-t-Butyl-5-(naphth-1-yl-ethanoyl)aminoindole]",b (“b” indicates activity is at a concentration greater than 10 micromolar),–,–
Cc1cn(C(=O)c2c(Cl)cccc2Cl)c2ccc(NC(=O)c3c(Cl)cccc3Cl)cc12 [Compound 232],b (“b” indicates activity is at a concentration greater than 10 micromolar),–,–
CC(C)(C)c1cc2cc(NC(=O)c3cccc(F)c3)ccc2[nH]1 [Compound 226],b (“b” indicates activity is at a concentration greater than 10 micromolar),–,–
Cc1cc2cc(NC(=O)C3CCCC3)ccc2n1C(=O)c1ccc(Cl)cc1Cl [Compound 239],b (“b” indicates activity is at a concentration greater than 10 micromolar),–,–
"Cc1cccc(C)c1C(=O)n1c(C)cc2cc(NC(=O)C3CC3)ccc21 [Compound 16f-4, 5-Cyclopropanecarbonylamino-1-(2′,6′-dimethylbenzoyl)-2-methylindole]",a (“a” indicates inhibitory activity at a concentration of less than 10 micromolar),–,–
"Cc1c(C)n(C(=O)c2c(Cl)cccc2Cl)c2ccc(NC(=O)C3CCC3)cc12 [Compound 13c, 5-(Cyclobutanecarbonyl)amino-1-(2′,6′-dichlorobenzoyl)-2,3-dimethylindole]",a (“a” indicates inhibitory activity at a concentration of less than 10 micromolar),–,–
"Cc1cccc(C)c1C(=O)n1c(C)cc2cc(NC(=O)C3CCCC3)ccc21 [Compound 16f-1, 5-Cyclopentanecarbonylamino-1-(2′,6′-dimethylbenzoyl)-2-methylindole]",a (“a” indicates inhibitory activity at a concentration of less than 10 micromolar),–,–
Cc1cc2cc(NC(=O)C3CCNCC3)ccc2n1C(=O)c1c(Cl)cccc1Cl [Compound 266],a (“a” indicates inhibitory activity at a concentration of less than 10 micromolar),–,–
"Cc1cc2cc(NC(=O)C3CCCCC3)ccc2n1C(=O)c1c(Cl)cccc1Cl [Compound 16a-2, 5-Cyclohexanecarbonylamino-1-(2′,6′-dichlorobenzoyl)-2-methylindole]",a (“a” indicates inhibitory activity at a concentration of less than 10 micromolar),–,–
